Measurements reported in patent US10000483B2, “Bone marrow on X chromosome kinase (BMX) inhibitors and uses thereof” (Dana-Farber Cancer Institute, Inc., priority 2012, dated 2018).

Experiments:
BMX [1] = biological target: T1, BMX (Homo sapiens (Human), UniProt P51813); test: Invitrogen Select Screening in vitro kinase assay; assay type: biochemical
BLK = BLK (Homo sapiens (Human), UniProt P51451); test: Invitrogen Select Screening in vitro kinase assay; assay type: biochemical
From the text: (§1) The in vitro activity of compounds of Formula (I) and (II) in inhibiting BMX and other kinases were obtained using an Invitrogen Select Screening assay as known in the art. The IC50 values determined from this assay are shown below.

TEC = TEC (Homo sapiens (Human), UniProt P42680); test: Invitrogen Select Screening in vitro kinase assay; assay type: biochemical
From the text: as §1

mTOR [2] = biological target: T2, mTOR (Homo sapiens (Human), UniProt P42345); test: Invitrogen Select Screening in vitro kinase assay; assay type: biochemical
From the text: as §1

ITK = ITK (Homo sapiens (Human), UniProt Q08881); test: Invitrogen Select Screening in vitro kinase assay; assay type: biochemical
mTORC1 = mTORC1 (Homo sapiens (Human), UniProt P42345); test: Invitrogen Select Screening in vitro kinase assay; assay type: biochemical
BMX [3] = biological target: T1, BMX; test: DiscoverX binding assay
From the text: (§3) Screening hits are identified by measuring the amount of protein captured in test versus control samples by using a quantitative, precise, and ultra-sensitive qPCR method that detects the associated DNA label.

EGFR(T790M) = EGFR(T790M) (Homo sapiens (Human), UniProt P00533, T790M); test: DiscoverX binding assay
From the text: as §3

mTOR [4] = biological target: T2, mTOR; test: DiscoverX binding assay; conditions: read-out: % inhibition at 1 uM, MTOR
From the text: as §3

CLK1 = CLK1 (Homo sapiens (Human), UniProt P49759); test: DiscoverX binding assay; conditions: read-out: % inhibition at 1 uM, CLK1
From the text: as §3

PIK3CG = PIK3CG (Homo sapiens (Human), UniProt P48736); test: Kinase panel at 1 uM (Table 9); assay type: binding; conditions: read-out: % inhibition at 1 uM, PIK3CG
From the text: as §3

MKNK2 = MKNK2 (Homo sapiens (Human), UniProt Q9HBH9); test: Kinase panel at 1 uM (Table 9); assay type: binding; conditions: read-out: % inhibition at 1 uM, MKNK2
From the text: as §3

TAK1 = TAK1 (Homo sapiens (Human), UniProt O43318); test: Kinase panel at 1 uM (Table 9); assay type: binding; conditions: read-out: % inhibition at 1 uM, TAK1
From the text: as §3

IRAK3 = IRAK3 (Homo sapiens (Human), UniProt Q9Y616); test: Kinase panel at 1 uM (Table 9); assay type: binding; conditions: read-out: % inhibition at 1 uM, IRAK3
From the text: as §3

CSNK2A2 = CSNK2A2 (Homo sapiens (Human), UniProt P19784); test: Kinase panel at 1 uM (Table 9); assay type: binding; conditions: read-out: % inhibition at 1 uM, CSNK2A2
From the text: as §3

YSK4 = YSK4 (Homo sapiens (Human), UniProt Q56UN5); test: Kinase panel at 1 uM (Table 9); assay type: binding; conditions: read-out: % inhibition at 1 uM, YSK4
From the text: as §3

DYRK1B = DYRK1B (Homo sapiens (Human), UniProt Q9Y463); test: Kinase panel at 1 uM (Table 9); assay type: binding; conditions: read-out: % inhibition at 1 uM, DYRK1B
From the text: as §3

FLT3(ITD) = test: Kinase panel at 1 uM (Table 9); assay type: binding
From the text: as §3

PIP5K2C = PIP5K2C (Homo sapiens (Human), UniProt Q8TBX8); test: Kinase panel at 1 uM (Table 9); assay type: binding; conditions: read-out: % inhibition at 1 uM, PIP5K2C
From the text: as §3

BCWM.1 cells = test: Cell proliferation analysis for WM and lymphoma cell lines (CellTiter-Glo); assay type: cell-based; conditions: BCWM1; 72 hours
Description: (§4) Various cell lines were used including Waldenström's macroglobulinemia (WM) cell lines (BCWM.1, MWCL-1, RPCI-WM1) and B-cell lymphoma cell lines (OCI-Ly3, Ramos, OCI-Ly19). Cells were seeded into 384 well plates with the EL406 Combination Washer Dispenser (BioTek Instruments, Inc.) and inhibitor compounds were injected into the cells culture media with the JANUS Automated Workstation (PerkinElmer Inc.).

MWCL-1 cells = test: as above; assay type: cell-based; conditions: 72 hours
Description: as §4

OCI-Ly3 cells = test: as above; assay type: cell-based; conditions: Homo sapiens, 72 hours
Description: as §4

Ramos cells = test: as above; assay type: cell-based; conditions: Homo sapiens, 72 hours
Description: as §4

BMX (C496S) = BMX (C496S) (Homo sapiens (Human), UniProt P51813, C496S); test: IP kinase assay, BMX autophosphorylation; assay type: biochemical; conditions: FIG. 15A
From the text: (§2) FIG. 15 confirms that the potency of the BMX inhibitors is due to covalent binding to cysteine 496.

wild-type (WT) BMX = wild-type (WT) BMX (Homo sapiens (Human), UniProt P51813); test: IP kinase assay, BMX autophosphorylation; assay type: biochemical; conditions: FIG. 15
From the text: as §2

FAK pY576/577 = test: FAK pYpY phosphorylation blot in RV1 cells cotransfected with BMX and FAK; assay type: cell-based; conditions: FIG. 17
BMX [5] = biological target: T1, BMX; test: BMX protein levels in RV-1 cells; assay type: cell-based; conditions: 72 h treatment, 5 μM
From the text: Moreover, the depletion could be rescued upon stable overexpression of the C496S mutant BMX.

[6] = test system: RV-1 cells expressing wild-type BMX or C496S mutant; conditions: FIG. 16
[7] = test system: TEL-BMX transformed Ba/F3 cells; test: cells; conditions: Mus musculus, BaF3, read-out: GI50, TEL-BMX
[8] = test system: TEL-JAK1 transformed Ba/F3 cells; test: cells; conditions: Mus musculus, BaF3, read-out: GI50, TEL-JAK1
[9] = test system: TEL-JAK2 transformed Ba/F3 cells; test: cells; conditions: Mus musculus, BaF3, read-out: GI50, TEL-JAK2
[10] = test system: TYK2E957D transformed Ba/F3 cells; test: cells; conditions: Mus musculus, BaF3, read-out: GI50, TYK2E957D
[11] = test system: TEL-Abl transformed Ba/F3 cells; test: cells; conditions: Mus musculus, BaF3, read-out: GI50, TEL-Abl
DU-145 cells = test: cells; conditions: Homo sapiens, DU-145, read-out: GI50, DU-145
Description: (§5) Data were normalized to control group (DMSO) and represented by the mean of at least two independent measurement with standard error <20%. GI50 were calculated using Prism 5.0 (GraphPad Software, San Diego, Calif.).

VACP cells = test: cells; conditions: read-out: GI50, VACP
Description: as §5

C4-2 cells = test: cells; conditions: C4-2, read-out: GI50, C4-2
Description: as §5

## C=CC(=O)Nc1cc(-n2c(=O)ccc3cnc4ccc(-c5ccc(NS(C)(=O)=O)cc5)cc4c32)ccc1C [I-14]
BMX [1]
  IC50: 0.00799 µM
BLK
  IC50: 0.377 µM
TEC
  IC50: 0.653 µM
mTOR [2]
  IC50: 0.325 µM
ITK
  IC50: 5.25 µM
mTORC1
  IC50: 7.4 µM
BMX [3]
  Percent Control, BMX: 29%
EGFR(T790M); DiscoverX binding
  Percent Control, EGFR(T790M): 2.1%
EGFR(T790M); read-out: % inhibition at 1 uM, EGFR(T790M)
  inhibition at 1 µM: 11%
mTOR [4]
  inhibition at 1 µM: 45%
CLK1
  inhibition at 1 µM: 95%
PIK3CG
  inhibition at 1 µM: 2.8%
MKNK2
  inhibition at 1 µM: 100%
TAK1
  inhibition at 1 µM: 83%
IRAK3
  inhibition at 1 µM: 73%
CSNK2A2
  inhibition at 1 µM: 100%
YSK4
  inhibition at 1 µM: 100%
DYRK1B
  inhibition at 1 µM: 100%
FLT3(ITD)
  % inhibition at 1 uM, FLT3(ITD): 99%
PIP5K2C
  inhibition at 1 µM: 5.6%
BCWM.1 cells
  EC50: 1.1 µM
MWCL-1 cells
  EC50: 1.39 µM
OCI-Ly3 cells
  EC50: > 20 µM
Ramos cells
  EC50: > 20 µM
BMX (C496S)
  concentration inhibiting autophosphorylation of BMX (C496S): > 10,000 nM
wild-type (WT) BMX
  concentration inhibiting autophosphorylation of wild-type BMX: 10 to 100 nM
FAK pY576/577
  BMX mediated phosphorylation of pYpY site on FAK: inhibits BMX mediated phosphorylation of pYpY site on FAK
BMX [5]
  BMX protein levels in RV-1 cells: significantly reduced
[6]
  growth inhibition of cells expressing wild-type BMX versus C496S mutant: more potently inhibits growth of cells expressing the wild-type BMX than the C496S mutant
[7]
  GI50: 0.025 µM
[8]
  GI50: 4.92 µM
[9]
  GI50: 5.83 µM
[10]
  GI50: 6.09 µM
[11]
  GI50: > 10 µM
DU-145 cells
  GI50: 4.38 µM
VACP cells
  GI50: 2.46 µM
C4-2 cells
  GI50: > 10 µM
